Data from article PMC12068008 (International Journal of Molecular Sciences, 2024).
Where two headings read alike, the source gives them in different places.

Legend:
[1] = physchem; format: physicochemical; conditions: shake flask, n-octanol/water, 25 °C, 1 × 10^−4 M; read-out: logP, experimentally obtained
Description: To measure the lipophilicity (expressed as the partition coefficient) of the synthesized compounds and their constituents, using a “shake-flask” method, a two-phase system composed of n-octanol and deionized water was used. The stock solutions of the compounds were diluted with water to the concentration of 1 × 10^−4 M, and this solution was used for further investigation. […] The concentration of the compounds was calculated from their extinction coefficient at 260 nm that was previously determined.

[2] = target: eqBuChE (Equus caballus, UniProt P81908); assay: BuChE inhibition (Ellman's procedure); format: biochemical; conditions: for inhibition at 100 µM: read-out: Percentage Inhibition BuChE
Description: (§1) The abilities of compounds to inhibit AChE and BuChE activity were determined following Ellman’s procedure, with AChI and BuChI as the enzyme substrate, respectively, and DTNB as a chromogenic reagent. AChE’s and BuChE’s working solutions were prepared at 20 mM TRIS and deionized water, respectively. AChI and BuChI solutions were prepared in deionized water. A 0.01 M DTNB solution was prepared with 0.1 M phosphate buffer (pH 7) containing 0.15% (w/v) sodium bicarbonate. Stock solutions (10 mM) of investigated compounds were prepared daily by dissolving solid compounds in DMSO. The reaction mixture containing phosphate buffer, DTNB, enzyme, and compound was preincubated 30 min at 37 °C. After the preincubation time, the enzyme reaction was initiated by adding appropriate substrate and left to incubate for 6 min. After incubation, 0.1 M SDS was added to stop the reaction. Absorbance measurements were performed using a UV/Vis spectrophotometer (Lambda 35, Perkin Elmer), measuring absorbance at 412 nm. A blank assay, containing all components except the enzyme, was used to account for non-enzyme reactions. The control solution contained all components except the inhibitor. All experiments were conducted in triplicate, and the results are expressed as the mean percentage enzyme activity compared to the control value. IC50 values were determined graphically using Origin 9 Microsoft Windows.

[3] = target: eeAChE (Electrophorus electricus, UniProt O42275); assay: biochemical; conditions: read-out: Percentage Inhibition AChE
Description: as §1, with “A 0.01 M DTNB solution was prepared with 0.1 M phosphate buffer (pH 7) containing 0.15% (w/v) sodium bicarbonate.” left out, “Absorbance measurements were performed using a UV/Vis spectrophotometer (Lambda 35, Perkin Elmer), measuring absorbance at 412 nm.” left out

[4] = DPPH radical scavenging assay; conditions: for antioxidative ability (DPPH): 0.01, 0.1 and 1 mM, 30 min; for IC50: 30 min incubation, 25 °C
Description: DPPH (2,2-diphenyl-1-picrylhydrazyl) radical scavenging assay was used to assess free-radical scavenging activity of synthesized compounds. Initially, 1 × 10^−4 M working solution of DPPH was prepared, and 350 µL was added to 350 µL of the solution of each compound. The final concentrations of the compounds (Q, 2a, and 2b) in the samples were 1 × 10^−3 M, 1 × 10^−4 M, and 1 × 10^−5 M. The control included ethanol only and DPPH–ethanol solution without compounds. The mixtures were incubated at 25 °C in the dark for 30 min. After incubation, the absorbance of the samples at 517 nm was measured in duplicate by using a UV/Vis spectrophotometer (Lambda 35, Perkin Elmer, Waltham, MA, USA). The DPPH radical scavenging ability was calculated using the following equation:(1) Antioxidative activity(%)=Acontrol−Asample/Acontrol×100% where Asample and Acontrol represent the absorbance at 517 nm of the sample and control, respectively. All samples were analysed in duplicate.

[5] = tested on: MRC-5 cells; assay: SRB assay, MRC-5 cells; format: cell-based; conditions: Homo sapiens, MRC5, 72 h, read-out: IC50 MRC
Description: (§2) Two human breast cancer cell lines, MDA-MB-231 (HTB-26) and MDA-MB-468 (HTB-132), human cervical cancer cell line HeLa (CCL-2), and MRC-5 (CCL-171) fibroblasts were purchased from the American Type Culture Collection (ATCC, Manassas, VA, USA). All cell lines were cultured in Dulbecco’s Modified Eagle’s Medium (DMEM) with 4500 mg/L glucose and L-glutamine (Capricorn Scientific, Ebsdorfergrund, Germany), supplemented with 10% foetal bovine serum (PAN-Biotech, Aidenbach, Germany), 10,000 U/mL penicillin, and 10 mg/mL streptomycin solution (Capricorn Scientific) under standard conditions at 37 °C in a humidified 5% CO2 atmosphere (ESCO, Lifesciences Group, Singapore).
Cells were seeded on a 96-well plate (Thermo Fisher Scientific, Waltham, MA, USA) at 2 × 10^3 cells per well in DMEM medium. For the analysis of the concentration- and time-dependent effect of the analysed compounds, cell monolayers were treated 24 h after seeding with concentrations 1 × 10^−6, 1 × 10^−5, and 1 × 10^−4 M for 24, 48, or 72 h. Cell viability was detected using sulforhodamine B (SRB) assay, based on the staining of cellular proteins. The assay was performed according to the procedure described by Skehan et al.. The cells were fixed with 10% trichloroacetic acid (TCA, CARLO ERBA Reagents GmbH, Emmendingen, Germany) for 1 h at 4 °C, washed with water, and stained for 15 min with 0.4% SRB (Sigma-Aldrich Chemie GmbH, Steinheim, Germany) in 1% acetic acid. The unbound SRB dye was rinsed with 1% acetic acid, while the protein-bound dye was extracted with a 10 mM Tris base (Sigma-Aldrich). The absorbance was measured at 550 nm with a reference wavelength of 690 nm in a microplate reader (Wallac, VICTOR2 1420 Multilabel counter, PerkinElmer, Turku, Finland). The results were expressed as a percentage of the control, where the cell growth of the control is set to 100%. […] The selectivity index (SI) was determined according to the following formula:(2) SI=IC50 for fibroblast cell line/IC50 for tumour cell line […]

[6] = tested on: MDA-MB-468 cells; assay: SRB assay, MDA-MB-468 cells; format: cell-based, human; conditions: Homo sapiens, MDA-MB-468, 72 h, read-out: IC50 MDA-468
Description: as §2
Cells were seeded on a 96-well plate (Thermo Fisher Scientific, Waltham, MA, USA) at 2 × 10^3 cells per well in DMEM medium. For the analysis of the concentration- and time-dependent effect of the analysed compounds, cell monolayers were treated 24 h after seeding with concentrations 1 × 10^−6, 1 × 10^−5, and 1 × 10^−4 M for 24, 48, or 72 h. Cell viability was detected using sulforhodamine B (SRB) assay, based on the staining of cellular proteins. The assay was performed according to the procedure described by Skehan et al.. The cells were fixed with 10% trichloroacetic acid (TCA, CARLO ERBA Reagents GmbH, Emmendingen, Germany) for 1 h at 4 °C, washed with water, and stained for 15 min with 0.4% SRB (Sigma-Aldrich Chemie GmbH, Steinheim, Germany) in 1% acetic acid. The unbound SRB dye was rinsed with 1% acetic acid, while the protein-bound dye was extracted with a 10 mM Tris base (Sigma-Aldrich). The absorbance was measured at 550 nm with a reference wavelength of 690 nm in a microplate reader (Wallac, VICTOR2 1420 Multilabel counter, PerkinElmer, Turku, Finland). The results were expressed as a percentage of the control, where the cell growth of the control is set to 100%. IC50, defined as the concentration that caused a 50% loss of cell growth, was calculated by non-linear regression analysis with the ED50plus v1.0 software. The selectivity index (SI) was determined according to the following formula:(2) SI=IC50 for fibroblast cell line/IC50 for tumour cell line
(§3) The assay was performed two times in 4 replicates for every experimental group. The statistical significance of differences between treated and untreated cells was estimated by the independent Student’s t-test, with the level of significance set at p < 0.05.

[7] = tested on: MDA-MB-231 cells; assay: SRB assay, MDA-MB-231 cells; format: cell-based; conditions: Homo sapiens, MDA-MB-231, 72 h, read-out: IC50 MDA-231
Description: (§4) All cell lines were cultured in Dulbecco’s Modified Eagle’s Medium (DMEM) with 4500 mg/L glucose and L-glutamine (Capricorn Scientific, Ebsdorfergrund, Germany), supplemented with 10% foetal bovine serum (PAN-Biotech, Aidenbach, Germany), 10,000 U/mL penicillin, and 10 mg/mL streptomycin solution (Capricorn Scientific) under standard conditions at 37 °C in a humidified 5% CO2 atmosphere (ESCO, Lifesciences Group, Singapore).
(§5) Cells were seeded on a 96-well plate (Thermo Fisher Scientific, Waltham, MA, USA) at 2 × 10^3 cells per well in DMEM medium. For the analysis of the concentration- and time-dependent effect of the analysed compounds, cell monolayers were treated 24 h after seeding with concentrations 1 × 10^−6, 1 × 10^−5, and 1 × 10^−4 M for 24, 48, or 72 h. Cell viability was detected using sulforhodamine B (SRB) assay, based on the staining of cellular proteins. The assay was performed according to the procedure described by Skehan et al.. The cells were fixed with 10% trichloroacetic acid (TCA, CARLO ERBA Reagents GmbH, Emmendingen, Germany) for 1 h at 4 °C, washed with water, and stained for 15 min with 0.4% SRB (Sigma-Aldrich Chemie GmbH, Steinheim, Germany) in 1% acetic acid. The unbound SRB dye was rinsed with 1% acetic acid, while the protein-bound dye was extracted with a 10 mM Tris base (Sigma-Aldrich). […] The results were expressed as a percentage of the control, where the cell growth of the control is set to 100%. […] The selectivity index (SI) was determined according to the following formula:(2) SI=IC50 for fibroblast cell line/IC50 for tumour cell line
as §3

[8] = target: Na^+, K^+-ATPase; conditions: cited from earlier work
[9] = tested on: HeLa cells; assay: SRB assay, HeLa cells; format: cell-based; conditions: Homo sapiens, HeLa, 72 h, read-out: IC50 HeLa
Description: as §4, §5, §3

eqBuChE, sequence (P81908 whole entry): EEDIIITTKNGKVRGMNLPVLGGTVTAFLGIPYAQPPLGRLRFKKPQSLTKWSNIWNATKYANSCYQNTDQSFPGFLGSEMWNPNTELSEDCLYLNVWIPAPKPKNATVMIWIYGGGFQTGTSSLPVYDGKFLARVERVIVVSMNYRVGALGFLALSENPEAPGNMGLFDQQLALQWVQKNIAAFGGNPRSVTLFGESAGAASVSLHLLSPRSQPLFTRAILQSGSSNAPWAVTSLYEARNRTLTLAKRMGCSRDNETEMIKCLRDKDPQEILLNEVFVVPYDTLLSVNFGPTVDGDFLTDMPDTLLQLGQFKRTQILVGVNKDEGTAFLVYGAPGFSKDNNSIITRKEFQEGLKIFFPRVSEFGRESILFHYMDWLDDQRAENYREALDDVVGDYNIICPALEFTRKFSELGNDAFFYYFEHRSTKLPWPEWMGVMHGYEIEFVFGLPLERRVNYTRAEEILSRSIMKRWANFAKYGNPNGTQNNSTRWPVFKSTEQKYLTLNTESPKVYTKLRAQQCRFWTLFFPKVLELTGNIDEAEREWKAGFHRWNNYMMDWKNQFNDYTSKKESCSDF
eeAChE, sequence (O42275 24-633): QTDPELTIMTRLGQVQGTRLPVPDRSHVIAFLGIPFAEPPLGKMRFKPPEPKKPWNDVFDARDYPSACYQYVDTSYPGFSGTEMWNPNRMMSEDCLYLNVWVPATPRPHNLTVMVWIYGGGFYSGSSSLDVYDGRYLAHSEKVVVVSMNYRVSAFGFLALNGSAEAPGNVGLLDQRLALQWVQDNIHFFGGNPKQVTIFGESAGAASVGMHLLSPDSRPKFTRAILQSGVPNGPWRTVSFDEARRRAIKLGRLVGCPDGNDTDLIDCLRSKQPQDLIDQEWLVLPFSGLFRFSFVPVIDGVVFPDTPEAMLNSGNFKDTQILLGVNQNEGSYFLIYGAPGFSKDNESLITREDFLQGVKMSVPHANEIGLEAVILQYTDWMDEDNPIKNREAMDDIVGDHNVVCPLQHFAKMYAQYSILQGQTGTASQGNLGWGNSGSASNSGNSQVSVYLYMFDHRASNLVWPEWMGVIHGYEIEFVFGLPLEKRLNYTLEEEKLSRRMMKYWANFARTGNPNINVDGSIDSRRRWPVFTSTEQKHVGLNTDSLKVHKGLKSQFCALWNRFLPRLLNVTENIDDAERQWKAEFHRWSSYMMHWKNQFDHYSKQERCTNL

`COc1cc2c(cc1OC)CNCC2` [Compound 1b, 6,7-dimethoxy-1,2,3,4-tetrahydroisoquinoline, reference compound] showed a logP at 30 min [1] of 1.14, an inhibition at 100 µM [2] of 17.7% and an inhibition at 100 µM [3] of 14.1%. For the same compound, the “antioxidative ability (DPPH)” value [4] was “did not show antioxidative ability”.

Compound `O=c1c(O)c(-c2ccc(O)c(O)c2)oc2cc(O)cc(O)c12` [Quercetin, reference compound] has an IC50 [5] of 10.4 ± 0.52 µM, an IC50 [6] of 65.9 ± 3.3 µM and an IC50 [7] of 76.6 ± 3.8 µM. The IC50 [2] was 22.1 µM, the inhibition at 100 µM [2] was 72% and the IC50 ([8]; literature value ref 36) was 46.3 µM. The IC50 [9] was 15.1 ± 2.67 µM, the inhibition at 100 µM [3] was 58% and the IC50 [4] was 19.3 µM.

For `c1ccc2c(c1)CCNC2` [Compound 1a, 1,2,3,4-tetrahydroisoquinoline, reference compound], the logP at 30 min [1] is listed as 1.4, the inhibition at 100 µM [2] is listed as 2% and the IC50 ([8]; literature value ref 35) is listed as 25000 µM. For the same compound, the inhibition at 100 µM [3] was 2% and the “antioxidative ability (DPPH)” value [4] was “did not show antioxidative ability”.

With `O=C1O[C@H]([C@@H](O)CO)C(O)=C1O` [Ascorbic acid] the IC50 [4] was 0.62 µM.
